Where a name gives a salt, the structure may show the parent alone.
What was measured:
[1] = target: carbonic anhydrase; assay: carbonic anhydrase inhibition (concentration for 50% inhibition); assay type: biochemical; conditions: carbonic anhydrase inhibitory properties; read-out: Conc. for 50% Inhibition
[2] = cited from earlier work

Row | IC50 [1] [nM] | Compound | water solubility [2]
1 | 94.9 | NS(=O)(=O)c1ccc(NC(=O)[C@@H]2CCCN2)cc1 [4-(L-prolylamino)benzenesulfonamide hydrochloride] | 
2 | 67.5 | CC(=O)N1CCC[C@H]1C(=O)Nc1ccc(S(N)(=O)=O)cc1 [4-(N-acetyl-L-prolyl-amino)benzenesulfonamide] | 
3 |  | CC(=O)Nc1nnc(S(N)(=O)=O)s1 [Acetazolamide, acetazolamide] | about 0.01 % w/v

Source: patent publication US4985417A, “Treatment of glaucoma” (priority 1989, dated 1991)
